According to patent publication EP2121694B1, “CYCLOPROPYL FUSED INDOLOBENZAZEPINE HCV NS5B INHIBITORS” (Bristol-Myers Squibb Company, priority 2007, dated 2008):

What follows are compounds tested against T1, HCV NS5B (Hepatitis C virus genotype 1b, UniProt Q9WMX2) (assay: Modified HCV NS5B RdRp enzyme assay (preincubation protocol)). Settings: HCV NS5B RdRp genotype 1b.
T1 construct: The protein was expressed with an 18 amino acid C-terminal truncation to enhance the solubility; made in house; host or cells: E. coli BL21(DE3), pET21a vector
T1 sequence (Q9WMX2 2420-2992): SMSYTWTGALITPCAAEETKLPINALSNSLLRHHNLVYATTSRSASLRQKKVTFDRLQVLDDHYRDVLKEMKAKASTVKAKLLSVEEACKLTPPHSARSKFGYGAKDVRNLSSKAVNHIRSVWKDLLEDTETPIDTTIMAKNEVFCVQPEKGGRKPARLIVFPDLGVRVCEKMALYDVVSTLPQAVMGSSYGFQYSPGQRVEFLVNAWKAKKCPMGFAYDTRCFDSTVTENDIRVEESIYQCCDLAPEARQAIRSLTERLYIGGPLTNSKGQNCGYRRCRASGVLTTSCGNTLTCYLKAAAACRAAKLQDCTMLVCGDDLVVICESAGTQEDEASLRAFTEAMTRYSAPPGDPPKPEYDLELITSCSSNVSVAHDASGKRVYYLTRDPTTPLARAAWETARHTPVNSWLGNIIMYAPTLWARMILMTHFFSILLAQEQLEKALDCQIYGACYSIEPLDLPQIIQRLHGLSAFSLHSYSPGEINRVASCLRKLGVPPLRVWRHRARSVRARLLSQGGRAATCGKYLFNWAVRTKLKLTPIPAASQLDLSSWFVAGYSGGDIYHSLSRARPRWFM
Format: biochemical
Procedure: HCV NS5B RdRp cloning, expression, and purification. The cDNA encoding the NS5B protein of HCV, genotype 1b, was cloned into the pET21a expression vector. The protein was expressed with an 18 amino acid C-terminal truncation to enhance the solubility. The E. coli competent cell line BL21(DE3) was used for expression of the protein. Cultures were grown at 37 °C for ∼ 4 hours until the cultures reached an optical density of 2.0 at 600 nm. The cultures were cooled to 20 °C and induced with 1 mM IPTG. Fresh ampicillin was added to a final concentration of 50 µg/ml and the cells were grown overnight at 20 °C.
Cell pellets (3L) were lysed for purification to yield 15-24 mgs of purified NS5B. The lysis buffer consisted of 20 mM Tris-HCl, pH 7.4, 500 mM NaCl, 0.5% triton X-100, 1 mM DTT, 1mM EDTA, 20% glycerol, 0.5 mg/ml lysozyme, 10 mM MgCl2, 15 ug/ml deoxyribonuclease I, and Complete TM protease inhibitor tablets (Roche). After addition of the lysis buffer, frozen cell pellets were resuspended using a tissue homogenizer. To reduce the viscosity of the sample, aliquots of the lysate were sonicated on ice using a microtip attached to a Branson sonicator. The sonicated lysate was centrifuged at 100,000 x g for 1hr at 4 °C and filtered through a 0.2 µm filter unit (Corning).
The protein was purified using three sequential chromatography steps: Heparin sepharose CL-6B, polyU sepharose 4B, and Hitrap SP sepharose (Pharmacia). The chromatography buffers were identical to the lysis buffer but contained no lysozyme, deoxyribonuclease I, MgCl2 or protease inhibitor and the NaCl concentration of the buffer was adjusted according to the requirements for charging the protein onto the column. Each column was eluted with a NaCl gradient which varied in length from 5-50 column volumes depending on the column type. After the final chromatography step, the resulting purity of the enzyme is >90% based on SDS-PAGE analysis. The enzyme was aliquoted and stored at -80 °C.
Standard HCV NS5B RdRp enzyme assay. HCV RdRp genotype 1b assays were run in a final volume of 60 µl in 96 well plates (Costar 3912). The assay buffer is composed of 20 mM Hepes, pH 7.5, 2.5 mM KCl, 2.5 mM MgCl2, 1 mM DTT, 1.6 U RNAse inhibitor (Promega N2515), 0.1 mg/ml BSA (Promega R3961), and 2 % glycerol. All compounds were serially diluted (3-fold) in DMSO and diluted further in water such that the final concentration of DMSO in the assay was 2%. HCV RdRp genotype 1b enzyme was used at a final concentration of 28 nM. A polyA template was used at 6 nM, and a biotinylated oligo-dT12 primer was used at 180 nM final concentration. Template was obtained commercially (Amersham 27-4110). Biotinylated primer was prepared by Sigma Genosys. 3H-UTP was used at 0.6 µCi (0.29 µM total UTP). Reactions were initiated by the addition of enzyme, incubated at 30 °C for 60 min, and stopped by adding 25 µl of 50 mM EDTA containing SPA beads (4 µg/µl, Amersham RPNQ 0007). Plates were read on a Packard Top Count NXT after >1hr incubation at room temperature.
Modified HCV NS5B RdRp enzyme assay. A modified enzyme assay was performed essentially as described for the standard enzyme assay except for the following: The biotinylated oligo dT12 primer was precaptured on streptavidin-coated SPA beads by mixing primer and beads in assay buffer and incubating at room temperature for one hour. Unbound primer was removed after centrifugation. The primer-bound beads were resuspended in 20 mM Hepes buffer, pH 7.5 and used in the assay at final concentrations of 20 nM primer and 0.67 µg/µl beads. Order of addition in the assay: enzyme (14 nM) was added to diluted compound followed by the addition of a mixture of template (0.2 nM) , 3H-UTP (0.6 µCi, 0.29 µM), and primer-bound beads, to initiate the reaction; concentrations given are final. Reactions were allowed to proceed for 4 hours at 30° C.
IC50 values for compounds were determined using seven different [I]. […]
For COC(=O)c1ccc2c(C3CCCCC3)c3n(c2c1)CC1(C(=O)N2CC(C)OC(C)C2)CC1c1c(OC(F)(F)F)cccc1-3 (stereo not shown), the IC50 was 1000 to 10000 nM. In the case of COc1ccc2c(c1)C1CC1(C(=O)O)Cn1c-2c(C2CCCCC2)c2ccc(C(=O)NS(=O)(=O)C(C)C)cc21 (stereo not shown), the IC50 is reported as 97 to 1000 nM. Work on COC(=O)C12CC1c1cc(OC)ccc1-c1c(C3CCCCC3)c3ccc(C(=O)NS(N)(=O)=O)cc3n1C2 (stereo not shown) yielded an IC50 of 97 to 1000 nM. Work on COc1ccc2c(c1)C1CC1(C(=O)N1CCCN(C)CC1)Cn1c-2c(C2CCCCC2)c2ccc(C(=O)NS(=O)(=O)N3CCC3)cc21 (stereo not shown) yielded an IC50 of 97 to 1000 nM. With COc1ccc2c(c1)C1CC1(C(=O)N1C[C@@H](C)O[C@@H](C)C1)Cn1c-2c(C2CCCCC2)c2ccc(C(=O)NS(=O)(=O)C3CC3)cc21 (stereo partly shown) the IC50 was 97 to 1000 nM. For COc1ccc2c(c1)C1CC1(C(=O)N1CCCNCC1)Cn1c-2c(C2CCCCC2)c2ccc(C(=O)NS(=O)(=O)N(C)C)cc21 (stereo not shown), the IC50 was 97 to 1000 nM. COc1ccc2c(c1)C1CC1(C(=O)N1CCCN(C)CC1)Cn1c-2c(C2CCCCC2)c2ccc(C(=O)NS(N)(=O)=O)cc21 (stereo not shown) showed an IC50 of 97 to 1000 nM. COc1ccc2c(c1)C1CC1(C(=O)N1CCC(C)(O)CC1)Cn1c-2c(C2CCCCC2)c2ccc(C(=O)NS(N)(=O)=O)cc21 (stereo not shown) showed an IC50 of 97 to 1000 nM. COc1ccc2c(c1)C1CC1(C(=O)N1CCC(C)(O)CC1)Cn1c-2c(C2CCCCC2)c2ccc(C(=O)NS(=O)(=O)N3CCC3)cc21 (stereo not shown) was tested, and the IC50 was 97 to 1000 nM. In the case of COc1ccc2c(c1)C1CC1(C(=O)N1CCC(C)(O)CC1)Cn1c-2c(C2CCCCC2)c2ccc(C(=O)NS(C)(=O)=O)cc21 (stereo not shown), the IC50 is reported as 97 to 1000 nM. COc1ccc2c(c1)C1CC1(C(=O)N1CCCN(C)CC1)Cn1c-2c(C2CCCCC2)c2ccc(C(=O)NS(=O)(=O)N(C)C)cc21 (stereo not shown) [drawing 58] was tested, and the IC50 was 97 to 1000 nM. In the case of COC(=O)c1ccc2c(C3CCCCC3)c3n(c2c1)CC1(C(=O)OC)CC1c1c(OC(F)(F)F)cccc1-3 (stereo not shown), the IC50 is reported as over 10000 nM. COc1ccc2c(c1)C1CC1(C(=O)N1CCCN(C)CC1)Cn1c-2c(C2CCCCC2)c2ccc(C(=O)NS(=O)(=O)C(C)C)cc21 (stereo not shown) gave an IC50 of 97 to 1000 nM. COc1ccc2c(c1)[C@H]1C[C@@]1(C(=O)O)Cn1c-2c(C2CCCCC2)c2ccc(C(=O)NS(=O)(=O)N(C)C)cc21 showed an IC50 of 97 to 1000 nM. For COc1ccc2c(c1)C1CC1(C(=O)N1CCC(F)(F)CC1)Cn1c-2c(C2CCCCC2)c2ccc(C(=O)NS(=O)(=O)N(C)C)cc21 (stereo not shown), the IC50 was 97 to 1000 nM. COc1ccc2c(c1)C1CC1(C(=O)N1CC(C)OC(C)C1)Cn1c-2c(C2CCCCC2)c2ccc(C(=O)NS(C)(=O)=O)cc21 (stereo not shown) showed an IC50 of 97 to 1000 nM.

Each compound was assayed on HCV replicon (assay: HCV FRET screening assay in HCV replicon cells). Settings: Hepatitis C virus.
Format: cell-based
Source text: FRET Assay Preparation. To perform the HCV FRET screening assay, 96-well cell culture plates were used. The FRET peptide (Anaspec, Inc.) (Taliani et al., Anal. Biochem. 1996, 240, 60-67) contains a fluorescence donor, EDANS, near one end of the peptide and an acceptor, DABCYL, near the other end. The fluorescence of the peptide is quenched by […] resonance energy transfer (RET) between the donor and the acceptor, but as the NS3 protease cleaves the peptide the products are released from RET quenching and the fluorescence of the donor becomes apparent. The assay reagent was made as follows: 5X cell Luciferase cell culture lysis reagent from Promega (#E153A) diluted to 1X with dH2O, NaCl added to 150 mM final, the FRET peptide diluted to 20 uM final from a 2 mM stock.
To prepare plates, HCV replicon cells, with or without a Renilla luciferase reporter gene, were trypsinized and placed into each well of a 96-well plate with titrated test compounds added in columns 3 through 12; columns 1 and 2 contained a control compound (HCV protease inhibitor), and the bottom row contained cells without compound. The plates were then placed in a CO2 incubator at 37 °C.
Assays. Subsequent to addition of the test compounds described above (FRET Assay Preparation), at various times the plate was removed and Alamar blue solution (Trek Diagnostics, #00-100) was added per well as a measure of cellular toxicity. After reading in a Cytoflour 4000 instrument (PE Biosystems), plates were rinsed with PBS and then used for FRET assay by the addition of 30 ul of the FRET peptide assay reagent described above (FRET Assay Preparation) per well. The plate was then placed into the Cytoflour 4000 instrument which had been set to 340 excite/490 emission, automatic mode for 20 cycles and the plate read in a kinetic mode. Typically, the signal to noise using an endpoint analysis after the reads was at least three-fold. Alternatively, after Alamar blue reading, plates were rinsed with PBS, 50 ul of DMEM (high glucose) without phenol red was added and plates were then used for luciferase assay using the Promega Dual-Glo Luciferase Assay System.
Compound analysis was determined by quantification of the relative HCV replicon inhibition and the relative cytotoxicity values. To calculate cytoxicity values, the average Alamar Blue fluorescence signals from the control wells were set as 100% non-toxic. The individual signals in each of the compound test wells were then divided by the average control signal and multiplied by 100% to determine […]. To calculate the HCV replicon inhibition values, an average background value was obtained from the two wells containing the highest amount of HCV protease inhibitor at the end of the assay period. These numbers were similar to those obtained from naïve Huh-7 cells.
The background numbers were then subtracted from the average signal obtained from the control wells and this number was used as 100% activity. The individual signals in each of the compound test wells were then divided by the averaged control values after background subtraction and multiplied by 100% to determine percent activity. EC50 values for a protease inhibitor titration were calculated as the concentration which caused a 50% reduction in FRET or luciferase activity. The two numbers generated for the compound plate, percent cytoxicity and percent activity were used to determine compounds of interest for further analysis.
COc1ccc2c(c1)[C@H]1C[C@@]1(C(=O)O)Cn1c-2c(C2CCCCC2)c2ccc(C(=O)NS(=O)(=O)N(C)C)cc21 showed an EC50 of 1000 to 10000 nM. For COc1ccc2c(c1)C1CC1(C(=O)N1CC(C)OC(C)C1)Cn1c-2c(C2CCCCC2)c2ccc(C(=O)NS(C)(=O)=O)cc21 (stereo not shown), the EC50 was 97 to 1000 nM.

Same assay, conditions: Hepatitis C virus, HCV replicon cells, FRET assay; read-out: EC50
Compound COc1ccc2c(c1)C1CC1(C(=O)N1C[C@@H](C)O[C@@H](C)C1)Cn1c-2c(C2CCCCC2)c2ccc(C(=O)NS(=O)(=O)C3CC3)cc21 (stereo partly shown) has an EC50 of 97 to 1000 nM. COc1ccc2c(c1)C1CC1(C(=O)N1CCCNCC1)Cn1c-2c(C2CCCCC2)c2ccc(C(=O)NS(=O)(=O)N(C)C)cc21 (stereo not shown) was tested, and the EC50 was 97 to 1000 nM. With COc1ccc2c(c1)C1CC1(C(=O)N1CCCN(C)CC1)Cn1c-2c(C2CCCCC2)c2ccc(C(=O)NS(N)(=O)=O)cc21 (stereo not shown) the EC50 was 97 to 1000 nM. COc1ccc2c(c1)C1CC1(C(=O)N1CCC(C)(O)CC1)Cn1c-2c(C2CCCCC2)c2ccc(C(=O)NS(N)(=O)=O)cc21 (stereo not shown) was tested, and the EC50 was 97 to 1000 nM. Compound COc1ccc2c(c1)C1CC1(C(=O)N1CCC(C)(O)CC1)Cn1c-2c(C2CCCCC2)c2ccc(C(=O)NS(=O)(=O)N3CCC3)cc21 (stereo not shown) has an EC50 of 97 to 1000 nM. COc1ccc2c(c1)C1CC1(C(=O)N1CCC(C)(O)CC1)Cn1c-2c(C2CCCCC2)c2ccc(C(=O)NS(C)(=O)=O)cc21 (stereo not shown) gave an EC50 of 97 to 1000 nM. COc1ccc2c(c1)C1CC1(C(=O)N1CCCN(C)CC1)Cn1c-2c(C2CCCCC2)c2ccc(C(=O)NS(=O)(=O)N(C)C)cc21 (stereo not shown) [drawing 58] gave an EC50 of 97 to 1000 nM. With COC(=O)c1ccc2c(C3CCCCC3)c3n(c2c1)CC1(C(=O)OC)CC1c1c(OC(F)(F)F)cccc1-3 (stereo not shown) the EC50 was over 120 nM. COc1ccc2c(c1)C1CC1(C(=O)N1CCCN(C)CC1)Cn1c-2c(C2CCCCC2)c2ccc(C(=O)NS(=O)(=O)C(C)C)cc21 (stereo not shown) gave an EC50 of over 120 nM. In the case of COc1ccc2c(c1)C1CC1(C(=O)N1CCC(F)(F)CC1)Cn1c-2c(C2CCCCC2)c2ccc(C(=O)NS(=O)(=O)N(C)C)cc21 (stereo not shown), the EC50 is reported as 97 to 1000 nM.
